Counter-ions that a name gives are not always drawn.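 A five-concentration, 48-hour dose response in 96-well plates underlies each endpoint, interpolated linearly between surrounding concentrations. GI50 = concentration required for 50% inhibition of growth.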 The source made the active and inactive calls. Cut-off read from the data, not from the text of the source: active = GI50 up to about 1.1 µM and inactive = higher.

Experimental findings from ChEMBL document CHEMBL1201862, “PubChem BioAssay data set” (2004) are described below.

What all share (test): NCI-60 cell line screen, 48 h
For experiment [1], the system named is T47D.
The subject of experiment [2] is DLD-1.
Experiment [3] concerns DMS-273.
In experiment [4] the test system is HOP-18.
Experiment [5] concerns KM-20L2.
Experiment [6] concerns LXFL 529.
In experiment [7] the test system is M19-MEL.
For experiment [8], the system named is XF498.

`O=C(O)CC(NC(=O)Nc1ccc([N+](=O)[O-])cc1)C(=O)Nc1ccc([N+](=O)[O-])cc1` (configuration not stated): in experiment [1], the GI50 was > 100 µM (inactive).
Still for that read-out and setting: for `CC1=C(O)C(=O)c2ccccc2C1=O` the value was > 100 µM (inactive); for `COc1cc(C[S+]([O-])c2ccc(O)cc2)cc(OC)c1OC` (configuration not stated), > 100 µM (inactive); for `CC(C)N1CCCOC(c2ccc([N+](=O)[O-])cc2)O1` (configuration not stated), > 100 µM (inactive).
In the case of `CCOC(=O)c1cc(OC(=O)CC)c2c(OC)ccc(OC)c2c1`, the GI50 in experiment [2] was > 100 µM (inactive); in experiment [3] it was 35.5 µM (inactive); in experiment [4], > 100 µM (inactive); in experiment [5] it was > 10 µM (inactive); in experiment [6] it was 37.8 µM (inactive); in experiment [7], 67.6 µM (inactive). The GI50 in experiment [8] is > 100 µM (inactive).
On to `CC(C)(C)S(=O)OC12CC3CC(CC(C3)C1)C2` (configuration not stated), for which the GI50 in experiment [3], in experiment [5], in experiment [6], in experiment [7] and in experiment [8] was > 100 µM (inactive) in each case.
Consider `CCOC(=O)c1cn(CC)c2ccc3ccsc3c2c1=O`, for which, in experiment [1], the GI50 is > 100 µM (inactive).
On the same count and under the same terms, for `Cn1c(=O)cc(/N=N\c2ccc(Cl)c(Cl)c2)[nH]c1=O` the value was 29.7 µM (inactive).
As for `CCOCN/C(N)=N\C#N`, the GI50 in experiment [2] was > 100 µM (inactive); in experiment [3], > 100 µM (inactive); in experiment [4] it was > 100 µM (inactive); in experiment [5] it was 89.1 µM (inactive); in experiment [6] it was > 100 µM (inactive); in experiment [7], > 100 µM (inactive). Also, the GI50 in experiment [8] is > 100 µM (inactive).
`c1cc(-c2ccsc2-c2ccsc2)cs1`: in experiment [1], the GI50 is 58.1 µM (inactive).
On the same count and under the same terms, for `O=C(c1ccccc1)c1ccc2[nH]c(-c3c(Cl)c(Cl)c(Cl)c(Cl)c3C(=O)N/N=C\C=C\c3ccccc3)nc2c1` the value was 16.5 µM (inactive).
Turning to `NC1=Nc2ccccc2Sc2ccccc21`, the GI50 in experiment [2] is > 100 µM (inactive); in experiment [3] it was > 100 µM (inactive); in experiment [4], 0.912 µM (active); in experiment [5], > 100 µM (inactive); in experiment [7], > 100 µM (inactive); in experiment [8] it was 52.1 µM (inactive).
Consider `CN1N=CSC12C(=O)N(c1ccc(Cl)cc1)C(=O)N2c1ccc(Cl)cc1` (configuration not stated), for which the GI50 in experiment [2] is 4.06 µM (inactive); in experiment [4] it was 3.43 µM (inactive); in experiment [5], 3.21 µM (inactive); in experiment [6] it was 3.34 µM (inactive); in experiment [7] it was 3.37 µM (inactive).
On to `COC(=O)C1(C)CCCC2(C)c3cc(OC)ccc3C(=O)C(Br)C12` (configuration not stated), for which the GI50 in experiment [1] is > 10 µM (inactive).
Same read-out and setting: for `N=C(N)NS(=O)(=O)c1ccc(NCc2cccc3c(=O)c4ccc(Cl)cc4oc23)cc1` the value was > 6.18 µM (inactive).
`CCOC(=O)NC(NC(C)CC)(C(F)(F)F)C(F)(F)F` (configuration not stated): the GI50 in experiment [1] is > 100 µM (inactive).
The same measure, in the same setting: the figure for `c1cnc2c(c1)Nc1cnncc1S2` is > 100 µM (inactive).
On the same count and under the same terms, for `Cc1cn(CC2=NCC(C)N2)c(=O)[nH]c1=O` (configuration not stated) the value was > 100 µM (inactive).
Consider `CCOc1ccc(NC(=O)C(=O)C(C(=O)c2ccc3ccccc3c2)C2OC(=O)c3ccccc32)cc1` (configuration not stated), for which the GI50 in experiment [2] was 7.87 µM (inactive); in experiment [3] it was 7.35 µM (inactive); in experiment [4], 17.7 µM (inactive); in experiment [5] it was 37.6 µM (inactive); in experiment [6], 6.9 µM (inactive); in experiment [7], 13.4 µM (inactive). Moreover, in experiment [8], the GI50 was 13.8 µM (inactive).
On to `O=C1NC(c2ccccc2)N=C2Oc3ccccc3C=C12` (configuration not stated), for which the GI50 in experiment [1] is > 100 µM (inactive).
Consider `O=C(C#Cc1ccccc1)NC/C=C/c1ccccc1`, for which the GI50 was 43.1 µM (inactive) in experiment [2]; > 100 µM (inactive) in experiment [4]; 44.9 µM (inactive) in experiment [5]; 38.2 µM (inactive) in experiment [6]; 60.1 µM (inactive) in experiment [7].
In the case of `COc1cc2nc(-c3ccc4ccccc4c3)nc(O)c2cc1OC`, in experiment [1], the GI50 is > 100 µM (inactive).
Same read-out and setting: for `CC(C)CC(NC(=O)C(Cc1ccccc1)NC(=O)[C@H]1CC[C@H](NC(=O)C(Cc2ccc(OC(C)(C)C)cc2)NC(=O)OC(C)(C)C)C1)C(N)=O` (some centres not stated) the value was 18.5 µM (inactive).
On the same count and under the same terms, the figure for `NCC1CCN(c2nc3ccccc3c3c2CCCC3)CC1` is 2.28 µM (inactive).
The same measure, in the same setting: for `CC(=O)c1cccc(NC(=O)C(=O)c2c(O)oc3ccccc3c2=O)c1` the value was > 100 µM (inactive); for `O=[N+]([O-])c1ccc(N/N=C/CC(O)(C(F)(F)F)C(F)(F)F)c([N+](=O)[O-])c1`, 3.21 µM (inactive); for `Oc1ccc(/C=C/c2cc(O)cc3c2C(c2cc(O)cc(O)c2)C(c2ccc(O)c(O)c2)O3)cc1` (configuration not stated), 13.1 µM (inactive).
For the molecule `CN(c1cn(C2CC[C@@H](CO)O2)c(=O)[nH]c1=O)C1CCCCC1` (some centres not stated), the GI50 in experiment [1] is > 100 µM (inactive).
The same measure, in the same setting: for `O=C1Nc2ccccc2C1=Nc1ccc(S(=O)(=O)Nc2nccs2)cc1` the value was > 100 µM (inactive).
The same measure, in the same setting: the figure for `CC1=NNC(=S)NCCCN2CCN(CCCNC(=S)NN=C(C)C=NNC(=S)NCCCN3CCN(CCCNC(=S)NN=C1)CC3)CC2` is > 100 µM (inactive).
Still for that read-out and setting: for `O=[N+]([O-])c1c(F)c(F)c2c(c1F)N(CCCCCl)c1ccccc1S2` the value was 12.4 µM (inactive).
For the molecule `COc1ccc2nc(NC(=O)C(=O)C(C#N)c3ccc(CC#N)cc3)sc2c1` (configuration not stated), the GI50 in experiment [2], in experiment [3], in experiment [4], in experiment [5], in experiment [6] and in experiment [7] was > 100 µM (inactive) in each case.
As to `CC12c3c4cccc3Oc3cc(N)cc(c31)Oc1cc(N)cc(c12)O4`, the GI50 in experiment [1] was 9.98 µM (inactive).
Still for that read-out and setting: the figure for `COC(=O)CCc1cc(OC)c2c(c1)[C@H](C(=O)OC)[C@@H](c1ccc(O)c(OC)c1)O2` is 55.5 µM (inactive); for `NC(CNO)C(=O)O` (configuration not stated) it is > 100 µM (inactive).
Take `CC(C)Oc1cccc(N2C(Nc3ccccc3)=Nc3ccncc3S2(=O)=O)c1`: in experiment [1], the GI50 was 13.8 µM (inactive).
In the case of `O=C(Nc1cc(C(=O)Nc2cccc(S(=O)(=O)O)c2)cc(C(=O)Nc2cccc(S(=O)(=O)O)c2)c1)c1cccc(C(=O)Nc2cc(C(=O)Nc3cccc(S(=O)(=O)O)c3)cc(C(=O)Nc3cccc(S(=O)(=O)O)c3)c2)c1`, the GI50 in experiment [1] was > 100 µM (inactive).
In the case of `O=C1N(Cl)C(=O)C(c2ccc(Cl)cc2)(c2ccc(Cl)cc2)N1Cl`, the GI50 in experiment [2] is 62.2 µM (inactive); in experiment [3], > 100 µM (inactive); in experiment [4] it was > 100 µM (inactive); in experiment [5], > 100 µM (inactive); in experiment [6], 63 µM (inactive); in experiment [7], 39.7 µM (inactive). For the same molecule, the GI50 in experiment [8] is > 100 µM (inactive).
Turning to `Cn1c(=O)c2c(nc3[nH]c(=O)c(Br)cn32)n(C)c1=O`, the GI50 in experiment [1] is > 100 µM (inactive).
Take `C(=C\c1ccccc1)/Cn1nc(-c2ccccc2)nc1-c1cnccn1`: the GI50 in experiment [1] was > 100 µM (inactive).
Same read-out and setting: the figure for `COc1cc(OC)c2c(=O)c(OC)c(-c3ccc4c(c3)OCO4)oc2c1` is 23.1 µM (inactive).
With `CC(=O)Nc1c(C)ccc2c1C(=O)c1ccccc1C2=O`, the GI50 in experiment [2], in experiment [3], in experiment [4], in experiment [6] and in experiment [7] was > 100 µM (inactive) throughout.
For the molecule `COC(=O)C1(Cc2ccccc2)Cc2c(C)ccc(C)c2C1=O` (configuration not stated), the GI50 in experiment [1] is 16.7 µM (inactive).
`CCCN1CN(C(C(=O)N[C@@H]2C(=O)N3C(C(=O)O)=C(C)CSC23)c2ccc(O)cc2)CSC1=S` (some centres not stated): the GI50 in experiment [2], in experiment [3], in experiment [4], in experiment [5], in experiment [6] and in experiment [7] was > 100 µM (inactive) each time. Further, the GI50 in experiment [8] is > 100 µM (inactive).
With `CC(=O)N1C(=O)/C(=C\C(=O)c2ccc([N+](=O)[O-])cc2)c2ccccc21`, the GI50 in experiment [1] was 20.5 µM (inactive).
The same measure, in the same setting: the figure for `C1CSC(Sc2nc(SC3=NCCS3)nc(SC3=NCCS3)n2)=N1` is > 100 µM (inactive); for `O=C1C=CC(=O)c2c(NCC3CC3)ccc(NCC3CC3)c21` it is 6.34 µM (inactive).
As to `CNC(=O)C(C)Oc1ccc(OCC2CCCCC2)cc1` (configuration not stated), the GI50 in experiment [2] was > 100 µM (inactive); in experiment [3], > 100 µM (inactive); in experiment [4], 16.3 µM (inactive); in experiment [6], 77.4 µM (inactive); in experiment [7], > 100 µM (inactive).
For `CC(C)C1CC(CO)(CNc2cc(Cl)nc(N)n2)C1` (configuration not stated), the GI50 in experiment [1] is 0.805 µM (active).
As to `CC(=O)/C(=C/NC(=S)N/N=C1\C(=O)Nc2ccccc21)C(=O)Nc1ccccc1C`, the GI50 in experiment [1] is 27.5 µM (inactive).
On the same count and under the same terms, the figure for `O=[N+]([O-])c1cc(-c2ccc([As](=O)(O)O)cc2)ccc1[As](=O)(O)O` is > 100 µM (inactive); for `Cc1cc(S(=O)(=O)Nc2nc(Nc3ccc(Cl)cc3)n[nH]2)c(S)cc1Cl` it is > 100 µM (inactive).
Still for that read-out and setting: for `Cc1ccc(C(=O)/C=C2\Nc3ccccc3S\C2=N\CS(=O)(=O)c2ccc(C)cc2)cc1` the value was 8.2 µM (inactive).
Consider `CCC1(N=[N+]=[N-])C(=O)Nc2cc(C)ccc2C1=O` (configuration not stated), for which the GI50 in experiment [2] is > 100 µM (inactive); in experiment [3], 23 µM (inactive); in experiment [4], 32.6 µM (inactive); in experiment [5] it was > 100 µM (inactive); in experiment [6] it was 38 µM (inactive); in experiment [7], 60.3 µM (inactive).
As for `COc1cc([C@@H]2c3[nH]c4ccccc4c3C(Nc3ccc([N+](=O)[O-])cc3)[C@H]3COC(=O)N23)cc(OC)c1O` (some centres not stated), the GI50 in experiment [1] is 0.466 µM (active).
With `COc1cccc2c1[C@]1(O)C(O)CCCC21` (some centres not stated), the GI50 in experiment [2] is > 100 µM (inactive); in experiment [3], > 100 µM (inactive); in experiment [4] it was 90.4 µM (inactive); in experiment [5] it was > 100 µM (inactive); in experiment [6], > 100 µM (inactive); in experiment [7] it was > 100 µM (inactive).
In the case of `CN(C)CCCN1c2ccccc2Sc2ccc(C(F)(F)F)cc21` [TRIFLUPROMAZINE HYDROCHLORIDE], the GI50 is 17.2 µM (inactive) in experiment [2]; 14.7 µM (inactive) in experiment [3]; 11.3 µM (inactive) in experiment [5]; 60 µM (inactive) in experiment [6]; 17.5 µM (inactive) in experiment [7]; 14.6 µM (inactive) in experiment [1].
